Test results as given in US20220298196A1, “NOVEL COMPOUND DERIVED FROM WATERMELON, AND COMPOSITION USING SAME” (HAGIHARA FARM PRODUCTION INSTITUTE CO., LTD., priority 2019, published 2022).

How the values were obtained:
[1] = system: SAPK/JNK; test: Activation (phosphorylation) of signaling molecule after UV-B irradiation, western blotting; type: cell-based, human; conditions: NHDF cells, precultured 24 hours, UV-B 25 mJ/cm2
Protocol: (§1) Since activation of p38MAP kinase, SAPK/JNK, and NF-κB involving in an inflammatory response is deeply involved in the induction and production of MMPs after UV-B irradiation, activation (via phosphorylation) of these signaling molecules was studied by the western blotting method.
(§2) More specifically, the NHDF cells were precultured for 24 hours in the same manner as described above, rinsed with PBS twice, irradiated with UV-B with a light intensity of 25 mJ/cm^2, and subjected to western blotting to examine phosphorylation of p38MAP, SAPK/JNK, and NF-κB.
(§3) The data were shown by average±standard error (n=3). The comparison between multiple groups was performed by using the Tukey-Kramer test method (p<0.05).
(§4) Referring to FIG. 4(b), the horizontal axis of the graph indicates conditions of the samples, that is, the presence/absence of UV-B irradiation (“+”: irradiated with UV, “−”: not irradiated), the presence/absence of 4G3HBE (“+”: presence, “−”: absence), and the presence/absence of 4GBE (“+”: presence, “−”: absence). Further, the vertical axis indicates changes in phosphorylation, that is, a relative ratio of phosphorylation activity. Referring to FIG. 4(b), p38MAP, SAPK/JNK, and phosphorylated NF-κB increased by UV-B irradiation. However, the expression of the signaling molecules was suppressed by the presence of 4G3HBE or 4GBE.

[2] = system: p38MAP kinase; test: as above; type: cell-based, human; conditions: NHDF cells, precultured 24 hours, UV-B 25 mJ/cm2
Protocol: as §1, §2, §3, §4

[3] = system: NF-κB; test: as above; type: cell-based, human; conditions: NHDF cells, precultured 24 hours, UV-B 25 mJ/cm2
Protocol: as §1, §2, §3, §4

[4] = DPPH radical scavenging rate (antioxidative effect); type: biochemical; conditions: 200 μM DPPH, 30 minutes, absorbance at 520 nm; compared with L-ascorbic acid
Protocol: In order to evaluate the antioxidation ability of the two novel compounds thus isolated, 200 μM DPPH (1,1-diphenyl-2-picrylhydrazyl) dissolved in 50% ethanol was prepared as a reagent. In the preparation procedure of the reagent, DPPH was first dissolved in ethanol, and an equal amount of Milli-Q water was then added to the mixture. Then, the resulting mixture was filtered with a 0.45 μm syringe filter to remove undissolved matters.
A sample solution in a volume of 150 μL and the 200 μM DPPH ethanol solution in a volume of 150 μL were mixed well in a 96-well plate. After the plate was left standing still for 30 minutes, the absorbance at 520 nm was measured using a microplate reader (Thermo Fisher Scientific, Multiscan-LUX). The radical scavenging rate was obtained using the formula (F1).
Note that in the formula, RD (%) represents the radical scavenging rate (%). ODblank520nm represents the absorbance at 520 nm of the reagent (DPPH) to which each of the sample solutions is not added, while ODsample520nm represents the absorbance at 520 nm of the reagent (DPPH) to which each of the sample solutions is added and mixed, followed by being left standing still for 30 minutes.
FIG. 2 is a graph of the result with a photograph of a state of the microplate. […]

[5] = system: NHDF cells; test: Amount of intracellular reactive oxygen species (ROS), CM-H2DCFDA; type: cell-based, human; conditions: 50 μM, precultured 24 hours, UV-B 25 mJ/cm2, 1 hour, control 1%, UV-B alone about 1.7%
Description: In the studies of “Antioxidative effect”, it was confirmed that 4G3HBE and 4GBE had approximately half of the antioxidation activity of vitamin C. On the other hand, according to “Inhibition of MMP-1 expression” and “Activation of signaling molecules”, it was thought that attenuation of the oxidative stress signal was induced by removal of ROS, generated by UV-B irradiation, by the antioxidation ability of 4G3HBE and 4GBE. Thus, the amount of the intracellular reactive oxygen species (ROS) was measured using CM-H2DCFDA, an indicator of ROS.
The NHDF cells (1.0×10^5 cells/mL) were cultured to a confluent state. Subsequently, 4G3HBE and 4GBE were each added to the cells at a final concentration of 50 μM, followed by preculturing for 24 hours. CM-H2DCFDA serving as a cell-permeable indicator of reactive oxygen was added to the cells at a final concentration of 10 μM one hour before ultraviolet ray irradiation. Subsequently, the cells were irradiated with UV-B with a light intensity of 25 mJ/cm^2 and further cultured for 1 hour in an incubator. Then, fluorescence was measured with an excitation wavelength of 495 nm and a fluorescent wavelength of 530 nm using a multimode microplate reader, Varioscan LUX. […]

[6] = system: MMP-1; test: Inhibition of MMP-1 protein expression after UV-B irradiation, western blotting; type: cell-based, human; conditions: NHDF cells, 50 or 100 μM, precultured 24 hours, UV-B 25 mJ/cm2, 24 hours after irradiation
Protocol: Normal human dermal fibroblasts-Neo (NHDF, hereinafter, simply referred to as “NHDF cells”) were adjusted at 1×10^5 cells/mL and inoculated in a 12-well multi-well plate in a volume of 1 mL each and cultured to a confluent state. Subsequently, test samples (a final concentration of 50 or 100 μM (of each solvent-fractionated matter) (of each isolated substance)) were added to the cells and the cells were precultured for 24 hours. Subsequently, after rinsing with PBS twice, the cells were irradiated with UV-B with a light intensity of 25 mJ/cm^2.
The cells irradiated with ultraviolet rays were subjected to SDS-PAGE after 24 hours, and then western blotting was performed by transferring to PVDF (polyvinylidene difluoride), thereby detecting protein expression of MMP-1.
Referring to FIG. 3(a), in two columns in an upper part of the photograph, an upper column indicates the presence/absence of UV irradiation (“+”: irradiated with UV, “−”: not irradiated) and a lower column indicates samples (no sample indicated by “−”, 4G3HBE, and 4GBE). Further, a left part of the photograph indicates detection targets (MMP-1 and β-Actin) along a vertical direction. β-Actin is measured as a control.

| Compound | activation of SAPK/JNK (phosphorylation) [1] | activation of p38MAP kinase (phosphorylation) [2] | activation of NF-κB (phosphorylation) [3] | antioxidative activity (radical scavenging rate) relative to vitamin C [4] | intracellular ROS level [5] | expression of MMP-1 (protein, detection intensity) [6] |
| --- | --- | --- | --- | --- | --- | --- |
| CC(C)(O)C(OC(=O)/C=C/c1ccc(O)c(O)c1)C(=O)OCc1ccc(O[C@@H]2O[C@H](CO)[C@@H](O)[C@H](O)[C@H]2O)c(O)c1 (stereo partly drawn) [4G3HBE, 2-caffeoyl-3-hydroxy-3-methylbutyric 4′-β-D-glucopyranosyloxy-3′-hydroxybenzyl ester] | significantly down-regulated | significantly down-regulated | significantly down-regulated | approximately half that of vitamin C | about 1.4% | clearly suppressed the expression of MMP-1 |
| CC(C)(O)C(OC(=O)/C=C/c1ccc(O)c(O)c1)C(=O)OCc1ccc(O[C@@H]2O[C@H](CO)[C@@H](O)[C@H](O)[C@H]2O)cc1 (stereo partly drawn) [4GBE, 2-caffeoyl-3-hydroxy-3-methylbutyric 4′-β-D-glucopyranosyloxybenzyl ester] | significantly down-regulated | significantly down-regulated | significantly down-regulated | approximately half that of vitamin C | about 1.4% | clearly suppressed the expression of MMP-1 |
